Source: patent US4476114A, “Iron-selenium preparation” (Orion-yhtyma Oy, priority 1982, dated 1984)
Values joined by “and” are separate entries in the source; they are usually repeats but may differ in a detail not shown here. Equal entries are not always repeated.

How the values were obtained:
glutathione peroxidase [1] = test: Serum glutathione peroxidase (gSH-Px) activity in selenium-deficient pigs (Table 1); assay type: in vivo
Experimental: (§1) The new type of preparation containing sodium selenite and ferric dextran was administered intramuscularly to three pigs, weight 15 . . . 25 kg, suffering from selenium deficiency. Another three pigs suffering from selenium deficiency were given the same dose of sodium selenite. Serum selenium content and glutathione peroxidase enzyme activity were determined as a measure of the bioactivity of selenium in the organism. […] All the pigs were on the same diet throughout the test period.
(§2) Animals 1, 2 and 3 received 0.06 mg Se per kg body weight intramuscularly
(§3) Animals 4, 5 and 6 received 0.06 mg Se per kg body weight intramuscularly
(§4) as sodium selenite combined with ferric dextran, 200 mg Fe per dose.

[2] = Serum selenium content in selenium-deficient pigs (Table 1); assay type: in vivo; conditions: 0.06 mg Se/kg i.m.
Experimental: as §1, §2, §3, §4

[3] = in words; background statement; cited from earlier work
glutathione peroxidase [4] = test: Serum glutathione peroxidase activity in newborn piglets (Table 2); assay type: in vivo
Experimental: (§5) Six newborn piglets weighing about 1 kg were given an intramuscular dose of 2 ml of the new iron-selenium preparation, each ml containing 100 mg Fe^+3 as ferric dextran and 0.15 mg Se^+4 as sodium selenite. […] This was in spite of the fact that the animals were fed on milk from a sow kept on a low-selenium diet during this period. Five similar piglets, given the same diet, formed the control group. The control animals were given 200 mg Fe^+3 ferric dextran intramuscularly at the same time as injection of the test group. Four weeks later, mean selenium levels of 55.4 ng/ml and a mean glutathione perioxidase activity of 710.8 IU/l were found in their serum. The differences between the mean values of the test group and the control group were statistically significant, the glutathione peroxidase difference at the 99% confidence interval and the Se difference at the 95% interval (Wilcoxson-Mann-Whitney rank sum test).
(§6) 0.3 mg/Se/kg together with 200 mg Fe^+3

[5] = Serum selenium level in newborn piglets (Table 2); assay type: in vivo
Experimental: as §5, §6

erythrocyte count = test: Increase in erythrocyte count in piglets, electronic counter; assay type: in vivo; conditions: eight days after injection of 200 mg Fe^+3 as ferric dextran, with or without Se^+4 0.15 mg/ml (2 ml, s.c. in test group); difference significant at 95% confidence interval
Experimental: (§7) In another study, two sows were kept on a low-selenium diet during the last four weeks of pregnancy and during lactation. The 25 piglets born alive were divided at the age of three days into two groups (12+13), both groups containing piglets from both sows. Blood samples were taken from all piglets for determination of selenium and glutathione peroxidase values and for blood cell counts. The test group (13 piglets) were given a subcutaneous injection of 200 mg (2 ml) Fe^+3 as ferric dextran, to which sodium selenite had been added to give a Se^+4 content of 0.15 mg/ml. The control group (12) received 200 mg Fe^+3 as ferric dextran without Se^+4. One piglet in the control group later died. After eight days, blood samples were taken from all piglets. […] The difference was statistically significant at the 95% confidence interval using the non-parametric Wilcoxson-Mann-Whitney rank sum test. […] This is an important finding that will play a major role in both human and veterinary medicine. The use of selenium in combination with iron is likely to increase considerably. […] Selenium is probably stored as an iron-selenium complex, which explains the unexpected sufficiency of a single dose given at an early stage up to a weight of about 8 . . . 10 kg.

[6] = Serum selenium maintenance / selenium sufficiency in piglets injected at three days; assay type: in vivo; conditions: in words; 200 mg Fe^+3 per animal; 3 weeks
Experimental: as §7

[7] = Growth (weight increase) of piglets injected at three days; assay type: in vivo; conditions: in words; 200 mg Fe^+3 per animal; 3 weeks
Experimental: as §7

[8] = in words, four weeks after treatment
[9] = mean of five control piglets, serum, four weeks later, 200 mg Fe^+3 ferric dextran i.m.

Molecule	gSH-Px, 0-sample (glutathione peroxidase [1]; individual pigs, 0-sample (before dosing), 0.06 mg Se/kg i.m., with ferric dextran 200 mg Fe per dose for animals 4-6)	gSH-Px at day 8 (glutathione peroxidase [1]; individual pigs, day 8, 0.06 mg Se/kg i.m., with ferric dextran 200 mg Fe per dose for animals 4-6)	gSH-Px at day 15 (glutathione peroxidase [1]; individual pigs, day 15, 0.06 mg Se/kg i.m., with ferric dextran 200 mg Fe per dose for animals 4-6)	Mean gSH-Px, 0-sample (glutathione peroxidase [1]; mean of 3 pigs, 0-sample (before dosing), 0.06 mg Se/kg i.m.) [IU/l]	Mean gSH-Px at day 8 (glutathione peroxidase [1]; mean of 3 pigs, day 8, 0.06 mg Se/kg i.m.) [IU/l]	Mean gSH-Px at day 15 (glutathione peroxidase [1]; mean of 3 pigs, day 15, 0.06 mg Se/kg i.m.) [IU/l]	serum selenium level over 15 days ([2]; in words)	Mean Se, 0-sample ([2]; mean of 3 pigs, serum, 0-sample (before dosing)) [ng/mL]	Mean Se at day 8 ([2]; mean of 3 pigs, serum, day 8, 11520 min) [ng/mL]	Mean Se at day 15 ([2]; mean of 3 pigs, serum, day 15, 21600 min) [ng/mL]	elimination of selenium from the organism [3]	half-life of selenium in the organism [3]	serum level of glutathione peroxidase four weeks later (glutathione peroxidase [4]; [8])	mean glutathione peroxidase activity, control group (glutathione peroxidase [4]; [9]) [IU/l]	serum level of selenium four weeks later [5, 8]	mean selenium level, control group [5, 9] [ng/mL]	mean increase in the erythrocyte count (erythrocyte count)	selenium status of control animals [6]	weight increase of control animals [7]
O=[Se]([O-])[O-].[Na+].[Na+] [sodium selenite]	373 IU/l and 298 IU/l and 325 IU/l	1065 IU/l and 796 IU/l and 926 IU/l	632 IU/l and 437 IU/l and 484 IU/l	332	926	518	remained elevated for only 8 days	23	49	35	rapidly eliminated	short	–	–	–	–	–	–	–
ferric dextran	–	–	–	–	–	–	–	–	–	–	–	–	indicate a deficiency state	710.8	indicate a deficiency state	55.4	1.41±0.30 10^12 /l	severe selenium deficiency	retardation in weight increase
